Measurements: PubChem BioAssay AID2060510 (Molecular Pharmacology Branch, DTP, NCI, 2025)

Tested on: 439559-082-T-J2-PDC spheroids viability
Assay: Anticancer human tumor 439559-082-T-J2-PDC patient-derived colon adenocarcinoma cell line growth inhibition [GQUAD]
Details: for IC50: curve of first compound; for viability, T/C: stronger effect = lower value
From the text: DNA G-quadruplex Stabilizer Agents in Combinations in Complex Spheroids
A high-throughput screen of multi-cell type tumor spheroids was designed to identify active combinations of DNA G-quadruplex stabilizer agents and targeted small molecules. Complex spheroids include a stromal component modeled by human endothelial cells (HUVEC) and fibroblasts modeled by human mesenchymal stem cells (MSCs). The concentration ranges selected for each drug and investigational agent were based upon clinically achievable concentrations if the clinical Cmax of the agent was known.
Compounds. The drugs and investigational agents: pidnarulex (CX-5461; NSC782164), APTO-253 (NSC789042), BRACO-19 (NSC847499), peposertib (NSC802822), ceralasertib (NSC780249), elimusertib (NSC800525), camonsertib (NSC841442), AZD-1390 (NSC803789), olaparib (NSC753686), talazoparib (NSC767125), ART-558 (NSC835418), sotorasib (NSC818433), MRTX-1133 (NSC836407), SN-38 (NSC673596), topotecan (NSC609699), etoposide (NSC141540), doxorubicin (NSC123127), gemcitabine (NSC613327), 5-fluorouracil (NSC19893), paclitaxel (NSC125973), vemurafenib (NSC761431), panobinostat (NSC761190), R-306465 (JNJ-16241199; NSC773264), adavosertib (NSC754352), TP-3654 (NSC805149), carboplatin (NSC241240), KSQ-4279 (NSC840948), and staurosporine (NSC755774) were obtained from the National Cancer Institute (NCI) Developmental Therapeutics Program Chemical Repository (34). The FDA-approved anticancer drug set is available from the NCI Developmental Therapeutics Program. […] The stock solutions were prepared in dimethyl sulfoxide (DMSO, Sigma-Aldrich, St. Louis, MO, cat. D2650) at 800-fold the tested concentration and stored at -70 degrees C prior to their use. All drugs and investigational agents were tested over a range starting from a high concentration at or near the clinical Cmax and decreasing in half-log increments. If the clinical Cmax for an agent had not been determined, the highest concentration tested was 10 microM.
2.3 Cell Culture. All cells were maintained in an incubator at 37 degrees C and 5% CO2 with 95% humidity. The PDC lines were cultured according to standard operating procedures established by the NCI PDMR. All PDCs were thawed and cultured in Matrigel-coated flasks prepared with a working solution of 1X Ham's F-12 nutrient mix, without supplementation (Invitrogen, cat. 11765054), 100 U/mL penicillin-streptomycin (Invitrogen, cat. 15140122), and 2.5% Matrigel (Corning Inc., cat. 354248) for the first three passages. The 857933-349-R-J2-PDC line was cultured in 6C/Colon 1B media, which includes advanced DMEM/F-12 (Thermo Fisher Scientific, cat. 12634028), 10 mM HEPES (Thermo Fisher Scientific, cat. 15630080), 1X GlutaMAX supplement (Thermo Fisher Scientific, cat. 35050061), 0.1 mg/mL primocin (InvivoGen, cat. ant-pm-2), 10% defined fetal bovine serum, heat inactivated (HyClone Laboratories Inc., cat. SH30070.03HI), 50% L-WRN conditioned media (ATCC, cat. CRL-3276), 1.25 mM N-Acetyl-L-cysteine (Sigma-Aldrich, cat. A9165), 10 mM nicotinamide (Sigma-Aldrich, cat. N0636), 1X B-27 supplement (Thermo Fisher Scientific, cat. 17504044), 1X N-2 supplement (Thermo Fisher Scientific, cat. 17502048), 10 microM Y-27632 dihydrochloride (Tocris Bioscience, cat. 1254), and 50 ng/mL human EGF recombinant protein (Thermo Fisher Scientific, cat. PHG0311). The 485176-168-R4-J1-PDC line was cultured in Panc media, which includes all 6C/Colon 1B media components plus 100 ng/mL human FGF-10 (Thermo Fisher Scientific, cat. 100-26), 500 nM SB-431542 (Selleckchem, cat. S1067), and gastrin (Tocris, cat. 3006).
[…]

[1] = second compound 0.0316 µM, first compound 0.0316 µM
[2] = second compound 0.0316 µM, first compound 0.1 µM
[3] = second compound 0.0316 µM, first compound 0.316 µM
[4] = second compound 0.0316 µM, first compound 1 µM
[5] = second compound 0.0316 µM, first compound 3.16 µM
[6] = second compound 0.0316 µM, first compound 10 µM
[7] = second compound 0.1 µM, first compound 0.0316 µM
[8] = second compound 0.1 µM, first compound 0.1 µM
[9] = second compound 0.1 µM, first compound 0.316 µM
[10] = second compound 0.1 µM, first compound 1 µM
[11] = second compound 0.1 µM, first compound 3.16 µM
[12] = second compound 0.1 µM, first compound 10 µM
[13] = second compound 0.316 µM, first compound 0.0316 µM
[14] = second compound 0.316 µM, first compound 0.1 µM
[15] = second compound 0.316 µM, first compound 0.316 µM
[16] = second compound 0.316 µM, first compound 1 µM
[17] = second compound 0.316 µM, first compound 3.16 µM
[18] = second compound 0.316 µM, first compound 10 µM
[19] = second compound 1 µM, first compound 0.0316 µM
[20] = second compound 1 µM, first compound 0.1 µM
[21] = second compound 1 µM, first compound 0.316 µM
[22] = second compound 1 µM, first compound 1 µM
[23] = second compound 1 µM, first compound 3.16 µM
[24] = second compound 1 µM, first compound 10 µM
[25] = second compound 3.16 µM, first compound 0.0316 µM
[26] = second compound 3.16 µM, first compound 0.1 µM
[27] = second compound 3.16 µM, first compound 0.316 µM
[28] = second compound 3.16 µM, first compound 1 µM
[29] = second compound 3.16 µM, first compound 3.16 µM
[30] = second compound 3.16 µM, first compound 10 µM
[31] = second compound 10 µM, first compound 0.0316 µM
[32] = second compound 10 µM, first compound 0.1 µM
[33] = second compound 10 µM, first compound 0.316 µM
[34] = second compound 10 µM, first compound 1 µM
[35] = second compound 10 µM, first compound 3.16 µM
[36] = second compound 10 µM, first compound 10 µM
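Note: spheroids exposed to the agents for 7 days before readout.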
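Throughout, for viability, T/C: percent of luminescence signal in DMSO vehicle wells taken as 100% viability.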

CC(=O)O[C@H]1C(=O)[C@@]2(C)[C@H]([C@H](OC(=O)c3ccccc3)[C@]3(O)C[C@H](OC(=O)[C@H](O)[C@@H](NC(=O)c4ccccc4)c4ccccc4)C(C)=C1C3(C)C)[C@]1(OC(C)=O)CO[C@@H]1C[C@@H]2O + Cc1[nH]c2ccc(F)cc2c1-c1nc2c3cccnc3c3ncccc3c2[nH]1
IC50 (second compound 0.0316 µM): 0.343 µM
IC50 (second compound 0.1 µM): 0.406 µM
IC50 (second compound 0.316 µM): 0.436 µM
IC50 (second compound 1 µM): 0.402 µM
IC50 (second compound 3.16 µM): 0.385 µM
IC50 (second compound 10 µM): 0.298 µM
viability, T/C [1]: 103%
viability, T/C [2]: 81.4%
viability, T/C [3]: 57.7%
viability, T/C [4]: 4.13%
viability, T/C [5]: 0.17%
viability, T/C [6]: 0.27%
viability, T/C [7]: 99%
viability, T/C [8]: 96.2%
viability, T/C [9]: 63.1%
viability, T/C [10]: 2.41%
viability, T/C [11]: 0.19%
viability, T/C [12]: 0.28%
viability, T/C [13]: 102%
viability, T/C [14]: 87.5%
viability, T/C [15]: 67.7%
viability, T/C [16]: 5.02%
viability, T/C [17]: 0.14%
viability, T/C [18]: 0.29%
viability, T/C [19]: 90.2%
viability, T/C [20]: 82.3%
viability, T/C [21]: 61.9%
viability, T/C [22]: 6.01%
viability, T/C [23]: 0.1%
viability, T/C [24]: 0.41%
viability, T/C [25]: 61.7%
viability, T/C [26]: 76.5%
viability, T/C [27]: 58.6%
viability, T/C [28]: 6.91%
viability, T/C [29]: 0.18%
viability, T/C [30]: 0.37%
viability, T/C [31]: 88.9%
viability, T/C [32]: 63.2%
viability, T/C [33]: 55.9%
viability, T/C [34]: 9.43%
viability, T/C [35]: 0.43%
viability, T/C [36]: 0.5%

O=c1[nH]cc(F)c(=O)[nH]1 + Cc1[nH]c2ccc(F)cc2c1-c1nc2c3cccnc3c3ncccc3c2[nH]1
IC50 (second compound 0.0316 µM): > 10 µM
IC50 (second compound 0.1 µM): > 10 µM
IC50 (second compound 0.316 µM): > 10 µM
IC50 (second compound 1 µM): > 10 µM
IC50 (second compound 3.16 µM): > 10 µM
IC50 (second compound 10 µM): > 10 µM
viability, T/C [1]: 90.7%
viability, T/C [2]: 95.5%
viability, T/C [3]: 87.7%
viability, T/C [4]: 78.9%
viability, T/C [5]: 76.8%
viability, T/C [6]: 82.3%
viability, T/C [7]: 101%
viability, T/C [8]: 89.8%
viability, T/C [9]: 83.3%
viability, T/C [10]: 75.1%
viability, T/C [11]: 73.3%
viability, T/C [12]: 83.4%
viability, T/C [13]: 101%
viability, T/C [14]: 99.2%
viability, T/C [15]: 83.7%
viability, T/C [16]: 74.8%
viability, T/C [17]: 79.5%
viability, T/C [18]: 76.3%
viability, T/C [19]: 91.9%
viability, T/C [20]: 96.3%
viability, T/C [21]: 79.1%
viability, T/C [22]: 72.8%
viability, T/C [23]: 70.6%
viability, T/C [24]: 72.3%
viability, T/C [25]: 103%
viability, T/C [26]: 88.8%
viability, T/C [27]: 76.5%
viability, T/C [28]: 65%
viability, T/C [29]: 62.5%
viability, T/C [30]: 59.1%
viability, T/C [31]: 82.2%
viability, T/C [32]: 81.9%
viability, T/C [33]: 67.9%
viability, T/C [34]: 59.3%
viability, T/C [35]: 57.5%
viability, T/C [36]: 59.8%

COc1ccc([C@@H](O)c2cc(-c3ncnc4cc(N5CCOCC5)ccc34)c(F)cc2Cl)nn1 + Cc1cnc(CNC(=O)c2c(=O)c3ccc(N4CCCN(C)CC4)nc3n3c2sc2ccccc23)cn1
IC50 (second compound 0.0316 µM): > 10 µM
IC50 (second compound 0.1 µM): > 10 µM
IC50 (second compound 0.316 µM): > 10 µM
IC50 (second compound 1 µM): 6.35 µM
IC50 (second compound 3.16 µM): 4.19 µM
IC50 (second compound 10 µM): 9.8 µM
viability, T/C [1]: 99.2%
viability, T/C [2]: 95.8%
viability, T/C [3]: 93.6%
viability, T/C [4]: 89.9%
viability, T/C [5]: 75.8%
viability, T/C [6]: 59.8%
viability, T/C [7]: 91.4%
viability, T/C [8]: 84%
viability, T/C [9]: 87.3%
viability, T/C [10]: 71.2%
viability, T/C [11]: 70.4%
viability, T/C [12]: 59%
viability, T/C [13]: 89.4%
viability, T/C [14]: 79.1%
viability, T/C [15]: 75.4%
viability, T/C [16]: 68.9%
viability, T/C [17]: 66.6%
viability, T/C [18]: 50.3%
viability, T/C [19]: 80.1%
viability, T/C [20]: 66.6%
viability, T/C [21]: 74.4%
viability, T/C [22]: 64.8%
viability, T/C [23]: 63.1%
viability, T/C [24]: 42.7%
viability, T/C [25]: 72%
viability, T/C [26]: 62.7%
viability, T/C [27]: 61.8%
viability, T/C [28]: 59.3%
viability, T/C [29]: 53.5%
viability, T/C [30]: 43.2%
viability, T/C [31]: 56.9%
viability, T/C [32]: 65.4%
viability, T/C [33]: 66.3%
viability, T/C [34]: 52.3%
viability, T/C [35]: 62.1%
viability, T/C [36]: 41%
